This is an account of results in patent US11850256B2, “Small molecule-mediated restoration of airway surface physiology in human cystic fibrosis lung epithelia” (The Board of Trustees of the University of Illinois, priority 2016, dated 2023).

Entries after “also recorded” stand apart in the source; their conditions may differ.

The subject of the assay is CuFi-1 (ΔF508/ΔF508) epithelial monolayers. Put plainly: 14C bicarbonate transport in CuFi-1 monolayers. It is filed as cell-based, human. Here is the method:
^14C bicarbonate was administered to the basolateral side of monolayers to trace ion movement through the cells over time. Epithelial monolayers grown from the patient-derived lung epithelial cell line CuFi-1 (ΔF508/ΔF508) were also studied. The genotype ΔF508/ΔF508 represents about 46.5% of all CF patients and is considered a relatively severe deficiency. Permeabilization of the apical membrane to bicarbonate anions with AmB could correct the flux abnormality resulting from the loss of CFTR. Upon treatment with 2 μM AmB for 48 hours, a decrease in intracellular ^14C bicarbonate and an increase in ASL ^14C bicarbonate compared to CuFi-1 alone was observed (FIGS. 15A and 15B).

For `C[C@@H]1[C@H](O)[C@@H](C)/C=C/C=C/C=C/C=C/C=C/C=C/C=C/[C@H](O[C@@H]2O[C@H](C)[C@@H](O)[C@H](N)[C@@H]2O)C[C@@H]2O[C@](O)(C[C@@H](O)C[C@@H](O)[C@H](O)CC[C@@H](O)C[C@@H](O)CC(=O)O[C@H]1C)C[C@H](O)[C@H]2C(=O)O` [AmB, amphotericin B], the “intracellular 14C bicarbonate” value (2 μM, 48 hours, compared to CuFi-1 alone) is reported as “decrease”. Under “CuFi-1”, the “ASL 14C bicarbonate, apical treatment” value is on record as “significantly increase; also recorded: increase bicarbonate in ASL”. Also, where the note is “CuFi-1, basolateral”, the “apical transport of bicarbonate, basolateral treatment” value is “unable to increase apical transport of bicarbonate; also recorded: not basolateral”.
